Assay results as given in patent US20260022142A1, “MACROCYCLIC IMMUNOMODULATORS” (Bristol-Myers Squibb Company, priority 2022, published 2026).
Bridge positions count the residues as written; N and C are the ends. Square brackets hold non-standard residues; d marks the D form. Peptide text beside a SMILES is read from it. * marks the point of attachment. Tyr(3,5-F2) = N[C@@H](Cc1cc(F)c(O)c(F)c1)C(=O)O; Phe(4-CONH2) = NC(=O)c1ccc(C[C@H](N)C(=O)O)cc1; Bip = N[C@@H](Cc1ccc(-c2ccccc2)cc1)C(=O)O; Phe(3-CN) = N#Cc1cccc(C[C@H](N)C(=O)O)c1; Phe(3-OMe) = COc1cccc(C[C@H](N)C(=O)O)c1; Phe(3-F) = N[C@@H](Cc1cccc(F)c1)C(=O)O; Phe(3-Me) = Cc1cccc(C[C@H](N)C(=O)O)c1; Phe(4-Me) = Cc1ccc(C[C@H](N)C(=O)O)cc1; Phe(2-Me) = Cc1ccccc1C[C@H](N)C(=O)O; Val(3-OH) = CC(C)(O)[C@H](N)C(=O)O; 4Pal = N[C@@H](Cc1ccncc1)C(=O)O; 2Thi = N[C@@H](Cc1cccs1)C(=O)O; Cha = N[C@@H](CC1CCCCC1)C(=O)O; Gly(cPr) = N[C@H](C(=O)O)C1CC1; Phg = N[C@H](C(=O)O)c1ccccc1; Carboxymethyl = O=C(O)C*; Orn = NCCC[C@H](N)C(=O)O; Aun = NCCCCCCCCCCC(=O)O; Dab = NCC[C@H](N)C(=O)O

Target: T1, PD-1/PD-L1 interaction (PE-labeled human PD-L1-Ig binding to Jurkat cell line over-expressing human PD-1) (Homo sapiens, UniProt Q15116)
T1 construct: expressed in transfected cells; host or cells: Jurkat
Test: Jurkat-PD-1 Cell Binding High-Content Screening Assay (CBA)
Format: cell-based
Conditions: Jurkat cell line over-expressing human PD-1; PE-labeled PD-L1-Ig 20 nM final; read-out: Jurkat hPD1-PDL1 IC50
In short: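 Jurkat cells stably over-expressing human PD-1 were seeded in DMEM with 10% fetal calf serum and pre-incubated with compound for 2 h at 37° C. PE-labeled human PD-L1-Ig was then added at 20 nM final for 1 hour, after which cells were fixed with paraformaldehyde, Hoechst-stained and imaged by high-content microscopy.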

T1 sequence (Q15116 25-288): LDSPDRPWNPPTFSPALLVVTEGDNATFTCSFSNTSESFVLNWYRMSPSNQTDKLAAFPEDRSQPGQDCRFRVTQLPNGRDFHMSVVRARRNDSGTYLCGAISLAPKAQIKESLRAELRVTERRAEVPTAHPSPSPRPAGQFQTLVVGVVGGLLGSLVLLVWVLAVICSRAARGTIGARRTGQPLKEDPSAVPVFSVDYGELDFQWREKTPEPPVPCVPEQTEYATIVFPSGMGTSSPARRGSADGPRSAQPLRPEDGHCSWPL

Row | Structure (SMILES) | IC50 [nM]
1 | Cc1cccc(C[C@@H]2NC(=O)[C@H](CC(=O)O)NC(=O)[C@H](Cc3ccc(OCC(=O)O)cc3)NC(=O)[C@H](Cc3ccncc3)NC(=O)CSC[C@@H](C(=O)N[C@@H](CCN)C(=O)NCCCCCCCCCCC(=O)O)NC(=O)[C@H](CO)NC(=O)[C@H](C(C)(C)O)NC(=O)[C@H](CC3CCCCC3)NC(=O)[C@H](CCN)NC(=O)[C@@H](CC(C)C)NC(=O)[C@H](CCCN)NC(=O)[C@H](Cc3ccc(OCC(=O)O)cc3)NC(=O)[C@H](Cc3ccc(-c4ccccc4)cc3)NC(=O)[C@H](Cc3cc(F)c(O)c(F)c3)NC2=O)c1 [Compound 2185] ({CH2CO}-[4Pal]Y(Carboxymethyl)D[Phe(3-Me)][Tyr(3,5-F2)][Bip]Y(Carboxymethyl)[Orn][dL][Dab][Cha][Val(3-OH)]SC[Dab][Aun]-OH; thioether N-14) | 9.6
2 | COc1cccc(C[C@@H]2NC(=O)[C@H](Cc3cccc(C)c3)NC(=O)[C@H](CC(=O)O)NC(=O)[C@H](Cc3ccc(OCC(=O)O)cc3)NC(=O)[C@H](Cc3ccncc3)NC(=O)CSC[C@@H](C(=O)N[C@@H](CCN)C(=O)NCCCCCCCCCCC(=O)O)NC(=O)[C@H](CO)NC(=O)[C@H](C(C)(C)O)NC(=O)[C@H](CC3CCCCC3)NC(=O)[C@H](CCN)NC(=O)[C@@H](CC(C)C)NC(=O)[C@H](CCCN)NC(=O)[C@H](Cc3ccc(OCC(=O)O)cc3)NC(=O)[C@H](Cc3ccc(-c4ccccc4)cc3)NC2=O)c1 [Compound 2186] ({CH2CO}-[4Pal]Y(Carboxymethyl)D[Phe(3-Me)][Phe(3-OMe)][Bip]Y(Carboxymethyl)[Orn][dL][Dab][Cha][Val(3-OH)]SC[Dab][Aun]-OH; thioether N-14) | 14
3 | Cc1cccc(C[C@@H]2NC(=O)[C@H](CC(=O)O)NC(=O)[C@H](Cc3ccc(OCC(=O)O)cc3)NC(=O)[C@H](Cc3ccncc3)NC(=O)CSC[C@@H](C(=O)N[C@@H](CCN)C(=O)NCCCCCCCCCCC(=O)O)NC(=O)[C@H](CO)NC(=O)[C@H](C(C)(C)O)NC(=O)[C@H](CC3CCCCC3)NC(=O)[C@H](CCN)NC(=O)[C@@H](CC(C)C)NC(=O)[C@H](CCCN)NC(=O)[C@H](Cc3ccc(OCC(=O)O)cc3)NC(=O)[C@H](Cc3ccc(-c4ccccc4)cc3)NC(=O)[C@H](C(C)(C)O)NC2=O)c1 [Compound 2187] ({CH2CO}-[4Pal]Y(Carboxymethyl)D[Phe(3-Me)][Val(3-OH)][Bip]Y(Carboxymethyl)[Orn][dL][Dab][Cha][Val(3-OH)]SC[Dab][Aun]-OH; thioether N-14) | 31.3
4 | Cc1cccc(C[C@@H]2NC(=O)[C@H](CC(=O)O)NC(=O)[C@H](Cc3ccc(OCC(=O)O)cc3)NC(=O)[C@H](Cc3ccncc3)NC(=O)CSC[C@@H](C(=O)N[C@@H](CCN)C(=O)NCCCCCCCCCCC(=O)O)NC(=O)[C@H](CO)NC(=O)[C@H](C(C)(C)O)NC(=O)[C@H](CC3CCCCC3)NC(=O)[C@H](CCN)NC(=O)[C@@H](CC(C)C)NC(=O)[C@H](CCCN)NC(=O)[C@H](Cc3ccc(OCC(=O)O)cc3)NC(=O)[C@H](Cc3ccc(-c4ccccc4)cc3)NC(=O)[C@H](Cc3cccs3)NC2=O)c1 [Compound 2188] ({CH2CO}-[4Pal]Y(Carboxymethyl)D[Phe(3-Me)][2Thi][Bip]Y(Carboxymethyl)[Orn][dL][Dab][Cha][Val(3-OH)]SC[Dab][Aun]-OH; thioether N-14) | 9.4
5 | Cc1cccc(C[C@@H]2NC(=O)[C@H](CC(=O)O)NC(=O)[C@H](Cc3ccc(OCC(=O)O)cc3)NC(=O)[C@H](Cc3ccncc3)NC(=O)CSC[C@@H](C(=O)N[C@@H](CCN)C(=O)NCCCCCCCCCCC(=O)O)NC(=O)[C@H](CO)NC(=O)[C@H](C(C)(C)O)NC(=O)[C@H](CC3CCCCC3)NC(=O)[C@H](CCN)NC(=O)[C@@H](CC(C)C)NC(=O)[C@H](CCCN)NC(=O)[C@H](Cc3ccc(OCC(=O)O)cc3)NC(=O)[C@H](Cc3ccc(-c4ccccc4)cc3)NC(=O)[C@H](C3CC3)NC2=O)c1 [Compound 2189] ({CH2CO}-[4Pal]Y(Carboxymethyl)D[Phe(3-Me)][Gly(cPr)][Bip]Y(Carboxymethyl)[Orn][dL][Dab][Cha][Val(3-OH)]SC[Dab][Aun]-OH; thioether N-14) | 18.2
6 | Cc1ccc(C[C@@H]2NC(=O)[C@H](Cc3cccc(C)c3)NC(=O)[C@H](CC(=O)O)NC(=O)[C@H](Cc3ccc(OCC(=O)O)cc3)NC(=O)[C@H](Cc3ccncc3)NC(=O)CSC[C@@H](C(=O)N[C@@H](CCN)C(=O)NCCCCCCCCCCC(=O)O)NC(=O)[C@H](CO)NC(=O)[C@H](C(C)(C)O)NC(=O)[C@H](CC3CCCCC3)NC(=O)[C@H](CCN)NC(=O)[C@@H](CC(C)C)NC(=O)[C@H](CCCN)NC(=O)[C@H](Cc3ccc(OCC(=O)O)cc3)NC(=O)[C@H](Cc3ccc(-c4ccccc4)cc3)NC2=O)cc1 [Compound 2190] ({CH2CO}-[4Pal]Y(Carboxymethyl)D[Phe(3-Me)][Phe(4-Me)][Bip]Y(Carboxymethyl)[Orn][dL][Dab][Cha][Val(3-OH)]SC[Dab][Aun]-OH; thioether N-14) | 19.6
7 | Cc1cccc(C[C@@H]2NC(=O)[C@H](CC(=O)O)NC(=O)[C@H](Cc3ccc(OCC(=O)O)cc3)NC(=O)[C@H](Cc3ccncc3)NC(=O)CSC[C@@H](C(=O)N[C@@H](CCN)C(=O)NCCCCCCCCCCC(=O)O)NC(=O)[C@H](CO)NC(=O)[C@H](C(C)(C)O)NC(=O)[C@H](CC3CCCCC3)NC(=O)[C@H](CCN)NC(=O)[C@@H](CC(C)C)NC(=O)[C@H](CCCN)NC(=O)[C@H](Cc3ccc(OCC(=O)O)cc3)NC(=O)[C@H](Cc3ccc(-c4ccccc4)cc3)NC(=O)[C@H](c3ccccc3)NC2=O)c1 [Compound 2191] ({CH2CO}-[4Pal]Y(Carboxymethyl)D[Phe(3-Me)][Phg][Bip]Y(Carboxymethyl)[Orn][dL][Dab][Cha][Val(3-OH)]SC[Dab][Aun]-OH; thioether N-14) | 20

The remaining lines, values ahead:

Row | IC50 [nM] | Structure (SMILES)
8 | 7.7 | Cc1cccc(C[C@@H]2NC(=O)[C@H](CC(=O)O)NC(=O)[C@H](Cc3ccc(OCC(=O)O)cc3)NC(=O)[C@H](Cc3ccncc3)NC(=O)CSC[C@@H](C(=O)N[C@@H](CCN)C(=O)NCCCCCCCCCCC(=O)O)NC(=O)[C@H](CO)NC(=O)[C@H](C(C)(C)O)NC(=O)[C@H](CC3CCCCC3)NC(=O)[C@H](CCN)NC(=O)[C@@H](CC(C)C)NC(=O)[C@H](CCCN)NC(=O)[C@H](Cc3ccc(OCC(=O)O)cc3)NC(=O)[C@H](Cc3ccc(-c4ccccc4)cc3)NC(=O)[C@H](Cc3ccc(C(N)=O)cc3)NC2=O)c1 [Compound 2192] ({CH2CO}-[4Pal]Y(Carboxymethyl)D[Phe(3-Me)][Phe(4-CONH2)][Bip]Y(Carboxymethyl)[Orn][dL][Dab][Cha][Val(3-OH)]SC[Dab][Aun]-OH; thioether N-14)
9 | 21.7 | Cc1cccc(C[C@@H]2NC(=O)[C@H](CC(=O)O)NC(=O)[C@H](Cc3ccc(OCC(=O)O)cc3)NC(=O)[C@H](Cc3ccncc3)NC(=O)CSC[C@@H](C(=O)N[C@@H](CCN)C(=O)NCCCCCCCCCCC(=O)O)NC(=O)[C@H](CO)NC(=O)[C@H](C(C)(C)O)NC(=O)[C@H](CC3CCCCC3)NC(=O)[C@H](CCN)NC(=O)[C@@H](CC(C)C)NC(=O)[C@H](CCCN)NC(=O)[C@H](Cc3ccc(OCC(=O)O)cc3)NC(=O)[C@H](Cc3ccc(-c4ccccc4)cc3)NC(=O)[C@H](Cc3ccccc3C)NC2=O)c1 [Compound 2193] ({CH2CO}-[4Pal]Y(Carboxymethyl)D[Phe(3-Me)][Phe(2-Me)][Bip]Y(Carboxymethyl)[Orn][dL][Dab][Cha][Val(3-OH)]SC[Dab][Aun]-OH; thioether N-14)
10 | 12.9 | Cc1cccc(C[C@@H]2NC(=O)[C@H](CC(=O)O)NC(=O)[C@H](Cc3ccc(OCC(=O)O)cc3)NC(=O)[C@H](Cc3ccncc3)NC(=O)CSC[C@@H](C(=O)N[C@@H](CCN)C(=O)NCCCCCCCCCCC(=O)O)NC(=O)[C@H](CO)NC(=O)[C@H](C(C)(C)O)NC(=O)[C@H](CC3CCCCC3)NC(=O)[C@H](CCN)NC(=O)[C@@H](CC(C)C)NC(=O)[C@H](CCCN)NC(=O)[C@H](Cc3ccc(OCC(=O)O)cc3)NC(=O)[C@H](Cc3ccc(-c4ccccc4)cc3)NC(=O)[C@H](Cc3cccc(F)c3)NC2=O)c1 [Compound 2194] ({CH2CO}-[4Pal]Y(Carboxymethyl)D[Phe(3-Me)][Phe(3-F)][Bip]Y(Carboxymethyl)[Orn][dL][Dab][Cha][Val(3-OH)]SC[Dab][Aun]-OH; thioether N-14)
11 | 11.8 | Cc1cccc(C[C@@H]2NC(=O)[C@H](CC(=O)O)NC(=O)[C@H](Cc3cccc(C#N)c3)NC(=O)[C@H](Cc3ccncc3)NC(=O)CSC[C@@H](C(=O)N[C@@H](CCN)C(=O)NCCCCCCCCCCC(=O)O)NC(=O)[C@H](CO)NC(=O)[C@H](C(C)(C)O)NC(=O)[C@H](CC3CCCCC3)NC(=O)[C@H](CCN)NC(=O)[C@@H](CC(C)C)NC(=O)[C@H](CCCN)NC(=O)[C@H](Cc3ccc(OCC(=O)O)cc3)NC(=O)[C@H](Cc3ccc(-c4ccccc4)cc3)NC(=O)[C@H](Cc3ccc(OCC(=O)O)cc3)NC2=O)c1 [Compound 2195] ({CH2CO}-[4Pal][Phe(3-CN)]D[Phe(3-Me)]Y(Carboxymethyl)[Bip]Y(Carboxymethyl)[Orn][dL][Dab][Cha][Val(3-OH)]SC[Dab][Aun]-OH; thioether N-14)
12 | 24.4 | Cc1cccc(C[C@@H]2NC(=O)[C@H](CC(=O)O)NC(=O)[C@H](Cc3cccc(C#N)c3)NC(=O)[C@H]([C@@H](C)O)NC(=O)CSC[C@@H](C(=O)N[C@@H](CCN)C(=O)NCCCCCCCCCCC(=O)O)NC(=O)[C@H](CO)NC(=O)[C@H](C(C)(C)O)NC(=O)[C@H](CC3CCCCC3)NC(=O)[C@H](CCN)NC(=O)[C@@H](CC(C)C)NC(=O)[C@H](CCCN)NC(=O)[C@H](Cc3ccc(OCC(=O)O)cc3)NC(=O)[C@H](Cc3ccc(-c4ccccc4)cc3)NC(=O)[C@H](Cc3ccc(OCC(=O)O)cc3)NC2=O)c1 [Compound 2196] ({CH2CO}-T[Phe(3-CN)]D[Phe(3-Me)]Y(Carboxymethyl)[Bip]Y(Carboxymethyl)[Orn][dL][Dab][Cha][Val(3-OH)]SC[Dab][Aun]-OH; thioether N-14)
